Source: US7704995B2 (Exelixis, Inc., priority 2003, dated 2010)

Molecular target: T1, Chk1 (Homo sapiens, UniProt O14757)
T1 construct: purchased Upstate Biotechnology
T1 sequence (O14757 1-476): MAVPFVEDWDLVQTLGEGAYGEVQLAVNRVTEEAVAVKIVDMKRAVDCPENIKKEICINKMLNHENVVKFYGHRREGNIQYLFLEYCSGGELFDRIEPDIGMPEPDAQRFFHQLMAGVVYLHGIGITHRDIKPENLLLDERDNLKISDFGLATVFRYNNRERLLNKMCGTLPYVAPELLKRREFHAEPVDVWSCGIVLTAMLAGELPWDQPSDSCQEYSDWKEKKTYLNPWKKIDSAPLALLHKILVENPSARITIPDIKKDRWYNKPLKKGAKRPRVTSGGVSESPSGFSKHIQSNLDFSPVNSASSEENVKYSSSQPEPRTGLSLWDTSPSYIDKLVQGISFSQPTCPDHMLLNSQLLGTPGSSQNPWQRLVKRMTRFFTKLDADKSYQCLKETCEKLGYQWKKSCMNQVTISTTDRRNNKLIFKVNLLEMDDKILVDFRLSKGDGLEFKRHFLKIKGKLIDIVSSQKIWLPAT
Experiment: Chk1 kinase assay: incorporation of γ-33P ATP into immobilized myelin basic protein
Type: biochemical
Conditions: Table 11, Chk1 only; class symbols A-D; read-out: Chk1 IC50
Summary of the method: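 Immobilized-MBP radiometric kinase assay, room temperature for 1 h; ATP 10 μM (Chk1, 10 nM enzyme) or 30 μM (Chk2, 20 nM enzyme) with 33P tracer. Values are IC50s, with Ki derived from them.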

Row | IC50 [µM] | Compound
1 | < 0.05 | CS(=O)(=O)c1ccc(CNC(=O)c2cccc(-c3cnc(N)c(C(=O)N[C@H]4CCCNC4)n3)c2)cc1 [Example 859, 3-amino-6-{3-[({[4-(methylsulfonyl)phenyl]methyl}amino)carbonyl]phenyl}-N-[(3S)-piperidin-3-yl]pyrazine-2-carboxamide]
2 | < 0.05 | Nc1ncc(-c2cccc(CNC(=O)c3ccc(-c4ccc([N+](=O)[O-])cc4)o3)c2)nc1C(=O)N[C@H]1CCCNC1 [Example 986, 3-Amino-6-[3-({[5-(4-nitro-phenyl)-furan-2-carbonyl]-amino}-methyl)-phenyl]-pyrazine-2-carboxylic acid (3S)-piperidin-3-ylamide]
3 | < 0.05 | Nc1ncc(-c2cccc(C(=O)NCc3ccc(I)cc3)c2)nc1C(=O)N[C@H]1CCCNC1 [Example 880, 3-amino-6-[3-({[(4-iodophenyl)methyl]amino}carbonyl)phenyl]-N-[(3S)-piperidin-3-yl]pyrazine-2-carboxamide]
4 | 0.05 to 1 | Nc1ncc(-c2cccc(O)c2)nc1C(=O)N[C@H]1CCNC1 [Example 811, 3-amino-6-(3-hydroxyphenyl)-N-[(3S)-pyrrolidin-3-yl]pyrazine-2-carboxamide]

Same assay, conditions: Table 11; Chk1 only; read-out: Chk1 IC50

Row | IC50 [µM] | Compound
5 | 0.05 to 1 | CNC(=O)c1nc(-c2cccc(CNC3CCc4cc(F)c(F)cc43)c2)cnc1N (centres unmarked) [Example 476, 3-amino-6-(3-{[(5,6-difluoro-2,3-dihydro-1H-inden-1-yl)amino]methyl}phenyl)-N-methylpyrazine-2-carboxamide]
6 | 1 to 10 | C/C(=N\NC(=N)N)c1nc(-c2cccc(C(=O)NCc3ccccc3)c2)cnc1N [Example 633, 3-(5-amino-6-{(1E)-N-[amino(imino)methyl]ethanehydrazonoyl}pyrazin-2-yl)-N-(phenylmethyl)benzamide]
7 | 1 to 10 | Nc1ncc(-c2cccc(CN[C@H]3CCc4ccccc43)c2)nc1C(=O)NCc1ccncc1 [Example 534, 3-amino-6-(3-{[(1S)-2,3-dihydro-1H-inden-1-ylamino]methyl}phenyl)-N-(pyridin-4-ylmethyl)pyrazine-2-carboxamide]

Same assay, conditions: read-out: Chk1 IC50

Row | Compound | IC50 [µM]
8 | CNC(=O)c1nc(-c2cccc(OCCN3CCC(O)C3)c2)cnc1N (centres unmarked) [Example 177, 3-amino-6-(3-{[2-(3-hydroxypyrrolidin-1-yl)ethyl]oxy}phenyl)-N-methylpyrazine-2-carboxamide] | 1 to 10
9 | CNC(=O)c1nc(-c2cccc(C(=O)NC3CCCCC3)c2)cnc1N [Example 133, 3-amino-6-{3-[(cyclohexylamino)carbonyl]phenyl}-N-methylpyrazine-2-carboxamide] | 1 to 10
10 | CCNC(=O)c1nc(-c2cccc(C(=O)NCc3c(F)cccc3Cl)c2)cnc1N [Example 273, 3-amino-6-[3-({[(2-chloro-6-fluorophenyl)methyl]amino}carbonyl)phenyl]-N-ethylpyrazine-2-carboxamide] | 1 to 10
11 | CNC(=O)c1nc(-c2ccc(N(C)C)cc2)cnc1N [Example 76, 3-amino-6-[4-(dimethylamino)phenyl]-N-methylpyrazine-2-carboxamide] | 1 to 10
12 | CNC(=O)c1nc(-c2cccc(C(=O)NCc3ccc(Cl)cc3C)c2)cnc1N [Example 245, 3-amino-6-[3-({[(4-chloro-2-methylphenyl)methyl]amino}carbonyl)phenyl]-N-methylpyrazine-2-carboxamide] | 0.05 to 1

Continued, values first:

Row | IC50 [µM] | Compound
13 | 0.05 to 1 | CNC(=O)c1nc(-c2cccc(C(=O)NCc3ccccc3-c3ccc(F)cc3)c2)cnc1N [Example 280, 3-amino-6-[3-({[(4′-fluorobiphenyl-2-yl)methyl]amino}carbonyl)phenyl]-N-methylpyrazine-2-carboxamide]
14 | 0.05 to 1 | CNC(=O)c1nc(-c2cccc(C(=O)NCc3ccc(S(N)(=O)=O)cc3)c2)cnc1N [Example 237, 3-amino-6-{3-[({[4-(aminosulfonyl)phenyl]methyl}amino)carbonyl]phenyl}-N-methylpyrazine-2-carboxamide]
